The test system of assay [1] is enzyme associated with Bacillus stearothermophilus spores. The assay can be described thus: Rapid enzyme fluorescence readout of indicators after hydrogen peroxide plasma sterilization. The format is biochemical. The following applies: for FLUORESCENCE - PERCENT POSITIVE 1 HR / FLUORESCENCE - PERCENT POSITIVE 2 HR / FLUORESCENCE - PERCENT POSITIVE 3 HR / FLUORESCENCE - PERCENT POSITIVE 4 HR / FLUORESCENCE - PERCENT POSITIVE 5 HR: 1–22 min diffusion. As to the method: (§1) Sterilization indicators for Examples 6–9 were prepared as described above with the exception that closure member 22 of the sterilization indicator was constructed of TYVEK™ high-density polyethylene fiber material, commercially available from E.I. du Pont de Nemours and Co., Wilmington, Del.
(§2) Sterilization indicators were made as described above with spores that had been coated with each of the chemicals and concentrations listed in Table 6. The indicators were placed in instrument trays and exposed to a hydrogen peroxide plasma sterilization procedure at 45–55° C. in a STERRAD™ 100SI GMP Sterilizer, obtained from Advanced Sterilization Products Co., Irvine, Calif. During the sterilization procedure a vacuum was drawn in the sterilization chamber for 5–6 minutes until the pressure was reduced to 300 mTorr. A 1.8 ml aliquot of an aqueous solution of 58–60% hydrogen peroxide was then injected into the sterilization chamber over a period of about 6 minutes, yielding an empty chamber concentration of […] hydrogen peroxide, and hydrogen peroxide vapor was allowed to diffuse throughout the chamber for 1–22 minutes at 6–10 Torr. A vacuum was then drawn, reducing the pressure to 500 mTorr and removing all detectable hydrogen peroxide vapor from the chamber.
(§3) After exposure to the sterilization procedure, the indicators were removed from the sterilizer and the inner containers containing the enzyme substrate and nutrient medium were crushed. The indicators were then incubated at 60° C. and examined for fluorescence every hour for 5 hours using a 3M™ ATTEST™ Model 190 Rapid Autoreader, commercially available from 3M Company, St. Paul, Minn. Additionally, spore growth, as indicated by a color change from purple to yellow, was determined visually after 168 hours of incubation.
(§4) The number of growth positive indicators detected after 168 hours of incubation is recorded in Table 6.
as §2, with “7.” for “6.”
as §2, with “8.” for “6.”, “chamber. […]” for “chamber.”

For assay [2], the system named is Bacillus stearothermophilus spores. The assay can be described thus: Spore outgrowth (color change) of indicators after hydrogen peroxide plasma sterilization. The note with it: 1–22 min diffusion. The format is cell-based. As to the method: as §1, §2, §3, §4
as §2, with “7.” for “6.”
as §2, with “8.” for “6.”, “chamber. […]” for “chamber.”

For assay [3], the system named is enzyme associated with Bacillus stearothermophilus spores. The assay can be described thus: Rapid enzyme fluorescence readout of dual rapid readout indicators after prevacuum steam sterilization. Type of assay: biochemical. The note with it: Example 4, 4-pulse prevacuum steam 121° C., 7–18 min. The method, boiled down:
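Bacillus stearothermophilus ATCC 7953 spores were coated with a sterilant-resistant chemical solution and pipetted onto paper strips at about 1×10^6 spores per strip. Each strip sat in a dual rapid readout indicator beside a crushable inner container of nutrient medium holding 4-methylumbelliferyl-alpha-D-glucoside at pH 7.6. Indicators went through a 4-pulse prevacuum steam cycle at 121° C, were activated, incubated at 60° C, and read for fluorescence on a 3M ATTEST Model 190 Rapid Autoreader.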

Assay [4] relates to Bacillus stearothermophilus spores. The assay can be described thus: Spore outgrowth (color change) of indicators after prevacuum steam sterilization. The note with it: Example 4, 4-pulse prevacuum steam 121° C., 7–18 min. Type of assay: cell-based. The method, boiled down:
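Bacillus stearothermophilus ATCC 7953 spores were cleaned, mixed into a heated sterilant-resistant coating chemical solution and pipetted onto paper strips at about 1×10^6 spores per strip. The strips were dried and placed in indicators, then exposed to a 4-pulse prevacuum steam cycle at 121° C. After exposure the media ampoule was crushed, and growth was judged visually as a purple-to-yellow color change after 168 hours at 60° C.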

With Alkyl Polyglucoside, in assay [1] (Example 8, 20 mg/ml coating), the “FLUORESCENCE - PERCENT POSITIVE 1 HR” value stood at 0%, the “FLUORESCENCE - PERCENT POSITIVE 2 HR” value was 0%, the “FLUORESCENCE - PERCENT POSITIVE 3 HR” value was 0% and the “FLUORESCENCE - PERCENT POSITIVE 4 HR” value was 0%. Moreover, the “FLUORESCENCE - PERCENT POSITIVE 5 HR” value in assay [1] (Example 8, 20 mg/ml coating) is 0%. Further, in assay [1] (Example 8, 40 mg/ml coating), the “FLUORESCENCE - PERCENT POSITIVE 1 HR” value is 0%, the “FLUORESCENCE - PERCENT POSITIVE 2 HR” value turned out to be 0%, the “FLUORESCENCE - PERCENT POSITIVE 3 HR” value amounted to 0% and the “FLUORESCENCE - PERCENT POSITIVE 4 HR” value turned out to be 0%. The “FLUORESCENCE - PERCENT POSITIVE 5 HR” value in assay [1] (Example 8, 40 mg/ml coating) worked out at 0%. Also, the “NO. GROWTH POSITIVE 168 HR” value in assay [2] (Example 8, 20 mg/ml coating) was 5. Further, the “NO. GROWTH POSITIVE 168 HR” value in assay [2] (Example 8, 40 mg/ml coating) stood at 1.
As for “polyoxyethylene (60) glycerol monostearate [POE(60) Glycerol Monostearate]”, the “accuracy of sterilization indicators compared to indicators made with untreated spores” value in assay [1] (2–3 hours after exposure) was “improved”. Besides, in assay [1] (Example 7, 50 mg/ml coating), the “FLUORESCENCE - PERCENT POSITIVE 1 HR” value is given as 100%, the “FLUORESCENCE - PERCENT POSITIVE 2 HR” value came to 100%, the “FLUORESCENCE - PERCENT POSITIVE 3 HR” value was 100% and the “FLUORESCENCE - PERCENT POSITIVE 4 HR” value is recorded as 100%. Further, the “FLUORESCENCE - PERCENT POSITIVE 5 HR” value in assay [1] (Example 7, 50 mg/ml coating) is reported as 100%. In assay [1] (Example 7, 100 mg/ml coating), the “FLUORESCENCE - PERCENT POSITIVE 1 HR” value is 57.1%, the “FLUORESCENCE - PERCENT POSITIVE 2 HR” value was 57.1%, the “FLUORESCENCE - PERCENT POSITIVE 3 HR” value worked out at 71.4% and the “FLUORESCENCE - PERCENT POSITIVE 4 HR” value worked out at 71.4%. In addition, in assay [1] (Example 7, 100 mg/ml coating), the “FLUORESCENCE - PERCENT POSITIVE 5 HR” value is recorded as 71.4%. In addition, the “NO. GROWTH POSITIVE 168 HR” value in assay [2] (Example 7, 50 mg/ml coating) turned out to be 7. Moreover, the “NO. GROWTH POSITIVE 168 HR” value in assay [2] (Example 7, 100 mg/ml coating) was found to be 7.
As to Decaglyceryl Trioleate, in assay [1] (Example 6, 50 mg/ml coating), the “FLUORESCENCE - PERCENT POSITIVE 1 HR” value is given as 85.0%, the “FLUORESCENCE - PERCENT POSITIVE 2 HR” value was found to be 97.5%, the “FLUORESCENCE - PERCENT POSITIVE 3 HR” value is 100% and the “FLUORESCENCE - PERCENT POSITIVE 4 HR” value was 100%. Also, the “FLUORESCENCE - PERCENT POSITIVE 5 HR” value in assay [1] (Example 6, 50 mg/ml coating) came to 100%. The “NO. GROWTH POSITIVE 168 HR” value in assay [2] (Example 6, 50 mg/ml coating) stood at 40. Moreover, in assay [3] (50 mg/ml coating), the “FLUORESCENCE - PERCENT POSITIVE 1 HR” value worked out at 0.0%, the “FLUORESCENCE - PERCENT POSITIVE 2 HR” value is 21.1%, the “FLUORESCENCE - PERCENT POSITIVE 3 HR” value was 47.4% and the “FLUORESCENCE - PERCENT POSITIVE 4 HR” value was 68.4%. Also, in assay [3] (100 mg/ml coating), the “FLUORESCENCE - PERCENT POSITIVE 1 HR” value stood at 23.1%, the “FLUORESCENCE - PERCENT POSITIVE 2 HR” value amounted to 50.0%, the “FLUORESCENCE - PERCENT POSITIVE 3 HR” value is recorded as 73.1% and the “FLUORESCENCE - PERCENT POSITIVE 4 HR” value worked out at 92.3%. Further, in assay [4] (50 mg/ml coating), the “NO. GROWTH POSITIVE 168 HR” value was 19. The “NO. GROWTH POSITIVE 168 HR” value in assay [4] (100 mg/ml coating) came to 26.

These data come from US7045343B2, “Sterilization indicator test packs” (3M Innovative Properties Company, priority 1998, dated 2006).
